Measured values published in patent publication US9303033B2, “Pyrazolopyrimidines and related heterocycles as CK2 inhibitors” (SENHWA BIOSCIENCES, INC., priority 2009, dated 2016).
Read-outs that look alike come from different tables or passages of the source.

How the values were obtained:
CK2 ααββ = CK2 ααββ (Homo sapiens (Human), UniProt P68400); test: CK2 assay (cell-free, 33P-ATP, phosphocellulose filter plate); assay type: biochemical
recombinant human PIM2 = recombinant human PIM2 (Homo sapiens (Human), UniProt Q9P1W9); test: PIM-2 assay (33P-ATP filter binding); assay type: biochemical; details: for PIM2: % inh […]: at […] compound
MDAMB453 = test: Cell proliferation assay with Alamar Blue (AB), MDAMB453; assay type: cell-based
Procedure: (§1) A representative cell-proliferation assay protocol using Alamar Blue dye (stored at 4° C., use 20 ul per well) is described hereafter.
(§2) a. Split and trypsinize cells.
(§3) b. Count cells using hemocytometer.
(§4) c. Plate 4,000-5,000 cells per well in 100 μl of medium and seed into a 96-well plate according to the following plate layout. Add cell culture medium only to wells B10 to B12.
(§5) d. Add 100 μl of 2× drug dilution to each well in a concentration shown in the plate layout above. […] Total volume is 200 μl/well.
(§6) e. Incubate four (4) days at 37° C., 5% CO2 in a humidified incubator.
(§7) f. Add […] Alamar Blue reagent to each well.
(§8) g. Incubate for four (4) hours at 37° C., 5% CO2 in a humidified incubator.
(§9) h. Record fluorescence at an excitation wavelength of 544 nm and emission wavelength of 590 nm using a microplate reader.
(§10) In the assays, cells are cultured with a test compound for approximately four days, the dye is then added to the cells and fluorescence of […] dye is detected after approximately four hours. Different types of cells can be utilized in the assays (e.g., HCT-116 human colorectal carcinoma cells, PC-3 human prostatic cancer cells, MDA-MB231 human breast cancer cells, K-562 human chronic myelogenous leukemia (CML) cells, MiaPaca human pancreatic carcinoma cells, MV-4 human acute myeloid leukemia cells, and BxPC3 human pancreatic adenocarcinoma cells).

[1] = system: BxPC3 human pancreatic adenocarcinoma cells; test: Cell proliferation assay with Alamar Blue (AB), BxPC3; assay type: cell-based
Procedure: as §1, §2, §3, §4, §5, §6, §7, §8, §9, §10

[2] = PIM2: IC50 (5 μM ATP), 5 μM ATP
[3] = Homo sapiens, MDA-MB-453, MDAMB453 cells, read-out: AB: MDAMB453
[4] = Homo sapiens, BXPC-3, read-out: AB: BxPC3
[5] = MDAMB453 cells, read-out: AB: MDAMB453 IC50
[6] = 5 um ATP, read-out: PIM2: IC50 (5 um ATP)

Sequence of recombinant human PIM2 (Q9P1W9 whole entry): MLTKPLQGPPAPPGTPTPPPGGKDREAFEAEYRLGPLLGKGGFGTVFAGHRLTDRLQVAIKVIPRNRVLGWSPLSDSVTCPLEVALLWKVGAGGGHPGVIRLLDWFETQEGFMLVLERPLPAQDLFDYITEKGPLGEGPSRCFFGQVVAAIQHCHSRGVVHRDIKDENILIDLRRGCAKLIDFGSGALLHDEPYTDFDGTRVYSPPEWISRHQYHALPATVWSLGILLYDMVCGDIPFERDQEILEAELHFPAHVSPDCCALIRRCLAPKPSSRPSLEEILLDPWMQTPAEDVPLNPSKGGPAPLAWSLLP
Sequence of CK2 ααββ (P68400 whole entry): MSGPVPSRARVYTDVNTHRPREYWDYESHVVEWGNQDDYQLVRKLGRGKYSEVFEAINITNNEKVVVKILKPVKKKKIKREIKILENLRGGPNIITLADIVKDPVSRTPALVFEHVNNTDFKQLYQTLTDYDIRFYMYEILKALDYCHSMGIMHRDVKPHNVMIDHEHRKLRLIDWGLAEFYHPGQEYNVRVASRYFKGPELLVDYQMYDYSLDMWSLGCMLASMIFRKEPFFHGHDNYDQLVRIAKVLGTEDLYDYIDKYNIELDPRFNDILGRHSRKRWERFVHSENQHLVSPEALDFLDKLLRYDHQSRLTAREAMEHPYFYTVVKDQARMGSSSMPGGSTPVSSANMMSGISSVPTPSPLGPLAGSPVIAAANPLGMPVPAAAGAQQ
Sequence of CK2 ααββ (P67870 whole entry partner): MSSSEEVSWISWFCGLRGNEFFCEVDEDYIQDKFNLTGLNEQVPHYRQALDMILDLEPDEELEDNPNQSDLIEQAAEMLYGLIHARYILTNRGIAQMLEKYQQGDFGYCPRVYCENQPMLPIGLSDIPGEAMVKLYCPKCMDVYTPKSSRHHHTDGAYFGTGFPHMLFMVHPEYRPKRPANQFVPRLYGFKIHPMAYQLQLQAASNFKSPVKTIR

Row | Structure (SMILES) | IC50 (CK2 ααββ) [µM] | IC50 (recombinant human PIM2; [2]) [µM] | IC50 (MDAMB453; [3]) [µM] | IC50 [1, 4] [µM] | other results
1 | O=C1NC(=O)/C(=C/c2cnn3c(NCCO)cc(Nc4cccc(Cl)c4)nc23)N1 [Example D6] | < 1 | 0.475 | 0.717 | 1.92 | 
2 | Nc1cc(Nc2cccc(Cl)c2)nc2c(/C=C3\NC(=O)NC3=O)cnn12 [Example A1, 5-((7-amino-5-(3-chlorophenylamino)pyrazolo[1,5-a]pyrimidin-3-yl)methylene)imidazolidine-2,4-dione] | < 0.1 | 1.18 | 2.46 | 16.6 | 
3 | O=C1NC(=O)/C(=C/c2cnn3c(NC4CCN(CCO)CC4)cc(Nc4cccc(Cl)c4)nc23)N1 [Example P5] | < 0.1 | > 2.5 | 0.825 | 16.5 | 
4 | NCc1cccc(-c2cc(NC3CC3)n3ncc(/C=C4\SC(=O)NC4=O)c3n2)c1 [Example J5] | < 1 | 0.198 | > 30 | 19 | 
5 | O=C1NC(=O)/C(=C/c2cnn3c(NCC4CC4)cc(Nc4cccnc4)nc23)N1 [Example V1] | < 0.1 | > 2.5 | 5.09 | 6.19 | 
6 | CN1C(=O)NC(=Cc2cnn3c(NC4CC4)cc(Nc4ccc(C#N)c(Cl)c4)nc23)C1=O [Example E42] | < 0.1 |  |  |  | PIM2: % inh […] (recombinant human PIM2): −72.498%; IC50 (MDAMB453; [5]): 1.29 µM; IC50 ([1]; read-out: AB: BxPC3 IC50): 1.97 µM
7 | O=C1NC(=S)S/C1=C\c1cnn2c(NC3CC3)cc(-c3ccnc(F)c3)nc12 | < 1 |  | > 30 | 22.7 | IC50 (recombinant human PIM2; [6]): 1.59 µM
8 | CC(C)(C)C(=O)N1CCC(Nc2cc(Nc3cccc(Cl)c3)nc3c(/C=C4\NC(=O)NC4=O)cnn23)CC1 [Example M5] | < 0.1 | > 2.5 | 0.874 | 10 | 
9 | Cc1c(N2CCN(c3ccccn3)CC2)nc2c(C=C3NC(=O)NC3=O)cnn2c1NC1CC1 [Example Q46] | < 0.01 |  |  |  | PIM2: % inh […] (recombinant human PIM2): 13.151%; IC50 (MDAMB453; [5]): > 30 µM; IC50 ([1]; read-out: AB: BxPC3 IC50): > 30 µM
10 | NCc1cccc(-c2cc(NC3CC3)n3ncc(/C=C4\NC(=O)NC4=O)c3n2)c1 [Example R4] | < 0.01 | 0.0487 | 14.9 | 10.6 | 
11 | O=C1NC(=O)/C(=C/c2cnn3c(NC4CC4)cc(-c4cccc(C(F)(F)F)c4)nc23)N1 [Example N4] | < 0.01 | > 2.5 | > 30 | 12.5 | 
12 | C=CCOc1cccc(-c2cc(NC3CC3)n3ncc(/C=C4\NC(=O)NC4=O)c3n2)c1 [Example E4] | < 0.01 | > 2.5 | 1.17 | 11.8 | 
13 | O=C1NC(=O)/C(=C/c2cnn3c(NC4CC4)cc(-c4cccc(CO)c4)nc23)N1 [Example V3] | < 0.01 | 0.649 | 0.477 | 5.17 | 
14 | CN(C)C(=O)N1CCC(Nc2cc(Nc3cccc(Cl)c3)nc3c(/C=C4\NC(=O)NC4=O)cnn23)CC1 [Example N5] | < 0.1 | > 2.5 | 1.57 | 17.4 | 
15 | O=C1NC(=O)C(=Cc2cnn3c(NC4CC4)cc(Oc4cccc(Cl)c4)nc23)N1 [Compound U38] | < 0.01 |  |  |  | IC50 (recombinant human PIM2; Tables 41B, 42B, read-out: PIM2: IC50): > 2.5 µM; IC50 (MDAMB453; [5]): 10.7 µM; IC50 ([1]; read-out: AB: BxPC3 IC50): 20.9 µM
16 | Cc1c(Nc2ccc(-n3cccn3)cc2)nc2c(/C=C3\NC(=O)NC3=O)cnn2c1NC1CC1 [Example E46] | < 0.1 |  |  |  | PIM2: % inh […] (recombinant human PIM2): 49.545%; IC50 (MDAMB453; [5]): 16.6 µM; IC50 ([1]; read-out: AB: BxPC3 IC50): 20.9 µM
17 | Cc1c(Nc2ccc(C#N)cc2F)nc2c(C=C3NC(=O)NC3=O)cnn2c1NC1CC1 [Example C46] | < 0.01 |  |  |  | PIM2: % inh […] (recombinant human PIM2): 59.266%; IC50 (MDAMB453; [5]): 6.29 µM; IC50 ([1]; read-out: AB: BxPC3 IC50): 15.2 µM
18 | O=C1NC(=O)/C(=C/c2cnn3c(NC4CC4)cc(Nc4ccc(Cl)cc4)nc23)N1 [Example I1] | < 0.01 | > 2.5 | 11.1 | 15.1 | 
19 | CC(C)N1CCN(C(=O)c2cc(-c3cc(NC4CC4)n4ncc(/C=C5\NC(=O)NC5=O)c4n3)ccc2F)CC1 [Example D5] | < 0.1 | > 2.5 | 2.44 | 1.21 | 
20 | O=C1NC(=O)/C(=C/c2cnn3c(NCC4CC4)cc(NN4CCOCC4)nc23)N1 [Example Q2] | < 0.01 | 0.284 | 0.154 | 5.37 | 

Second part, led by results:

Row | IC50 (CK2 ααββ) [µM] | IC50 (recombinant human PIM2; [2]) [µM] | IC50 (MDAMB453; [3]) [µM] | IC50 [1, 4] [µM] | Structure (SMILES) | other results
21 | < 0.01 |  |  |  | CC1CN(Cc2cc(-c3cc(NC4CC4)n4ncc(C=C5NC(=O)NC5=O)c4n3)cs2)CC(C)O1 (centres unmarked) [Compound A14] | IC50 (recombinant human PIM2; read-out: PIM2: IC50 (5 μM ATP), 5 μM ATP): 1.57 µM; IC50 (MDAMB453; MDAMB453 cells, read-out: AB: MDAMB453): 1.61 µM; IC50 ([1]; read-out: AB: BxPC3): 1.76 µM
22 | < 0.01 | > 2.5 | 1.05 | 23.6 | N#Cc1cccc(-c2cc(NC3CC3)n3ncc(/C=C4\NC(=O)NC4=O)c3n2)c1 [Example D4] | 
23 | < 0.01 |  |  |  | O=C1NC(=O)C(=Cc2cnn3c(NC4CC4)cc(Nc4ccc(OCCN5CCOCC5)c(Cl)c4)nc23)N1 [Example U42] | PIM2: % inh […] (recombinant human PIM2): 48.912%; IC50 (MDAMB453; [5]): 1.09 µM; IC50 ([1]; read-out: AB: BxPC3 IC50): 2.46 µM
24 | < 0.01 | 2.48 | 7.12 | 3.92 | O=C1NC(=O)/C(=C/c2cnn3c(NC4CC4)cc(Nc4cccc(C(F)(F)F)c4)nc23)N1 [Example J1] | 
25 | < 0.01 |  | > 30 | 11 | O=C1NC(=O)/C(=C/c2cnn3c(NC4CC4)cc(SCc4ccccc4)nc23)N1 | IC50 (recombinant human PIM2; [6]): > 2.5 µM
26 | < 0.01 | > 2.5 | 1.71 | 2.05 | COC(=O)c1cccc(-c2cc(NC3CC3)n3ncc(/C=C4\NC(=O)NC4=O)c3n2)c1 [Example W3] | 
27 | < 0.01 |  |  |  | CN(C)CCCOc1ccc(Nc2cc(NC3CC3)n3ncc(C=C4NC(=O)NC4=O)c3n2)cc1Cl [Example T42] | PIM2: % inh […] (recombinant human PIM2): 44.33%; IC50 (MDAMB453; [5]): 2.09 µM; IC50 ([1]; read-out: AB: BxPC3 IC50): 5.33 µM
28 | < 0.01 | 1.37 | 1.48 | 1.63 | CN1CCC(Nc2cc(NC3CC3)n3ncc(/C=C4\NC(=O)NC4=O)c3n2)CC1 [Example V2] | 
29 | < 0.01 | > 2.5 | 0.5 | 1.35 | O=C1NC(=O)/C(=C/c2cnn3c(NC4CC4)cc(Nc4ccc(F)cc4Cl)nc23)N1 [Example L1] | 
30 | < 0.01 | 1.25 | > 30 | 14.4 | O=C1NC(=O)/C(=C/c2cnn3c(NC4CC4)cc(-c4cccc(CN5CCOCC5)c4)nc23)N1 [Example M4] | 
31 | < 0.01 | > 2.5 | 17.1 | 1.23 | O=C1NC(=O)/C(=C/c2cnn3c(NC4CC4)cc(-c4ccnc(F)c4)nc23)N1 [Example O4] | 
32 | < 0.01 | > 2.5 | 0.993 | 2.4 | O=C1NC(=O)/C(=C/c2cnn3c(NC4CCN(C(=O)C5CC5)CC4)cc(Nc4cccc(Cl)c4)nc23)N1 [Example L5] | 
33 | < 0.01 | 0.0754 | 5.28 | 0.549 | CN(C)c1ccc(-c2cc(NC3CC3)n3ncc(/C=C4\NC(=O)NC4=O)c3n2)cn1 [Example P4] | 
34 | < 0.01 |  |  |  | O=C1NC(=O)C(=Cc2cnn3c(NC4CC4)cc(Nc4ccc(OCCN5CCOCC5)cc4F)nc23)N1 [Example S42] | PIM2: % inh […] (recombinant human PIM2): 44.49%; IC50 (MDAMB453; [5]): 2.74 µM; IC50 ([1]; read-out: AB: BxPC3 IC50): 5 µM
35 | < 0.01 | > 2.5 | 11.8 | 9.93 | Nc1cc(NC2CC2)n2ncc(/C=C3\NC(=O)NC3=O)c2n1 [Example K2] | 
36 | < 0.01 | > 2.5 | 0.517 | 13.1 | CS(=O)(=O)c1cccc(-c2cc(NC3CC3)n3ncc(/C=C4\NC(=O)NC4=O)c3n2)c1 [Example X3] | 
37 | < 0.01 | > 2.5 | 2.04 | 5.76 | COc1cccc(Nc2cc(NC3CC3)n3ncc(/C=C4\NC(=O)NC4=O)c3n2)c1 [Example F1] | 
38 | < 0.01 | > 2.5 | 15.7 | 29 | O=C1NC(=O)/C(=C/c2cnn3c(NC4CC4)cc(-c4cccc(NS(=O)(=O)C5CC5)c4)nc23)N1 [Example Z4] | 
39 | < 0.01 | 1.73 | > 30 | > 30 | CCS(=O)(=O)Nc1cccc(-c2cc(NC3CC3)n3ncc(/C=C4\NC(=O)NC4=O)c3n2)c1 [Example X4] | 
40 | < 0.01 | > 2.5 | 1.98 | 2.25 | CCCCS(=O)(=O)Nc1cccc(-c2cc(NC3CC3)n3ncc(/C=C4\NC(=O)NC4=O)c3n2)c1 [Example Y4] | 
41 | < 0.01 | 0.708 | 0.66 | 2.12 | O=C1NC(=O)/C(=C/c2cnn3c(NC4CC4)cc(N4CC[C@@H](F)C4)nc23)N1 [Example P2] | 
